# Results reported in article PMC7144563 (Molecules, 2020).
# Procedure: Cellulose membrane was properly treated and mounted in the Franz diffusion cells (diffusion area 4.9 cm^2, compartment volume 20 mL). The acceptor compartment was filled with PBS pH 7.4 and the donor compartment was filled with 1 mL of the formulation described above (100 μg/mL of the compounds). Permeation studies were conducted under constant stirring (90 rpm) at 37 °C. Samples of 0.5 mL were withdrawn from the acceptor compartment at predetermined time intervals (30 min, 1 h, 2 h, 4 h, 6 h, 8 h) and replaced with fresh and preheated PBS. Experiments were repeated in triplicates for each compound and blank experiments containing only the medium were also performed. The samples were analyzed by HPLC without any previous pretreatment.
# Steady state flux (Jss) was calculated from the slope of the linear section of the plot of the amount of permeated compound per unit area (μg/cm^2) against to time. The apparent permeability coefficient (Papp) was calculated using Equation (3), where Cd is the initial concentration of the drug in the donor compartment and Jss is the steady state flux. (3) Papp=Jss/Cd
SMILES,"Papp values compared to the rest of the tested steroids (during the first 4 h (2 h and 4 h) of the in vitro permeability study, considered outlier)",apparent permeability coefficient (Papp) (pH 7.4)
"C[C@]12CCC(=O)C[C@@H]1CC[C@@H]1[C@@H]2CC[C@]2(C)[C@@H](O)CC[C@@H]12 [COMP 3, Androstanolone]",significantly higher,
"C[C@]12C=CC(=O)C=C1CC[C@@H]1[C@@H]2C(=O)C[C@@]2(C)[C@H]1CC[C@]2(O)C(=O)CO [COMP 27, Prednisone]",,highest
